Each block holds one compound with its values, some of them ahead of it.
Assays:
[1] = target: Serine/threonine-protein kinase MARK2 (Homo sapiens) (UniProt Q7KZI7); test: Selectivity interaction (Ambit KINOMEscan and KiNATiv profiling in Jurkat cells) EUB0000090b MARK2; assay type: cell-based; conditions: at 1 µM
[2] = target: Dual specificity protein kinase CLK2 (Homo sapiens, UniProt P49760); test: Selectivity interaction (KinomeScan (DiscoverX)) EUB0000655a CLK2; conditions: at 10 µM
[3] = target: Homeodomain-interacting protein kinase 1 (Homo sapiens, UniProt Q86Z02); test: Selectivity interaction (KinomeScan (DiscoverX)) EUB0000618a HIPK1; conditions: at 10 µM
Homeodomain-interacting protein kinase 1, sequence (Q86Z02 whole entry, looked up, canonical isoform): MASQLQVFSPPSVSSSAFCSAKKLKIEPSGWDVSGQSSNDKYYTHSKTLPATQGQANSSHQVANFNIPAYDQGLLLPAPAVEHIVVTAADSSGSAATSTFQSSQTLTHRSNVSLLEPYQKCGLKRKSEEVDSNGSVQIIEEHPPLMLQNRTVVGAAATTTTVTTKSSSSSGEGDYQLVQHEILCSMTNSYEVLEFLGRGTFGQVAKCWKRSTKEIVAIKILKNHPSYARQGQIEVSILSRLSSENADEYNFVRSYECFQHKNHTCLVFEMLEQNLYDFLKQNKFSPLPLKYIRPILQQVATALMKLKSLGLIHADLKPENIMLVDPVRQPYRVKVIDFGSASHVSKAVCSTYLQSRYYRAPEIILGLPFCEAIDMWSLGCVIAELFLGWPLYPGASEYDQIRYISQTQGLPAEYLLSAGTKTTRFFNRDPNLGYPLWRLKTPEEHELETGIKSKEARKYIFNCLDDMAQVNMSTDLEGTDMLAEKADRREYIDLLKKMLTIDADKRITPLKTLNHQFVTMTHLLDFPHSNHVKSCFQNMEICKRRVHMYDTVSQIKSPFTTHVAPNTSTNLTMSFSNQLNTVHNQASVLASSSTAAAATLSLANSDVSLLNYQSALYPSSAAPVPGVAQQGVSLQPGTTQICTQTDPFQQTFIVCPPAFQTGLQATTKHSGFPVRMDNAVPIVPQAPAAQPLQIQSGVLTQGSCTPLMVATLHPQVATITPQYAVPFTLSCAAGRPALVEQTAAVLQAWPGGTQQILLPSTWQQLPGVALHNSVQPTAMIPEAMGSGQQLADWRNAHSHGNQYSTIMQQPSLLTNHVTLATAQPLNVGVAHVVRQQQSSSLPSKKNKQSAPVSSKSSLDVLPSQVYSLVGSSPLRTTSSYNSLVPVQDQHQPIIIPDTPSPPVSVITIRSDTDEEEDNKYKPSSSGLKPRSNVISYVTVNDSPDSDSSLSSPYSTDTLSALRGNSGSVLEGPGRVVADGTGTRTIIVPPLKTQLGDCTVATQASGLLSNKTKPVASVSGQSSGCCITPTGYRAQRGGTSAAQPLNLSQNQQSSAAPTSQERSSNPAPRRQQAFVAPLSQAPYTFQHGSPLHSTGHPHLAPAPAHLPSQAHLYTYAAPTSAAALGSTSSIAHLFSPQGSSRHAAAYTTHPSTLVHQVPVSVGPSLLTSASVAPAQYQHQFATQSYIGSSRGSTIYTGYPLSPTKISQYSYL

[4] = target: T1, Phosphorylase b kinase gamma catalytic chain, liver/testis isoform (Homo sapiens) (UniProt P15735); test: Selectivity interaction (SelectScreen profiling (Invitrogen)) EUB0000607a PHKG2; conditions: at 2 µM
T1 sequence (whole entry): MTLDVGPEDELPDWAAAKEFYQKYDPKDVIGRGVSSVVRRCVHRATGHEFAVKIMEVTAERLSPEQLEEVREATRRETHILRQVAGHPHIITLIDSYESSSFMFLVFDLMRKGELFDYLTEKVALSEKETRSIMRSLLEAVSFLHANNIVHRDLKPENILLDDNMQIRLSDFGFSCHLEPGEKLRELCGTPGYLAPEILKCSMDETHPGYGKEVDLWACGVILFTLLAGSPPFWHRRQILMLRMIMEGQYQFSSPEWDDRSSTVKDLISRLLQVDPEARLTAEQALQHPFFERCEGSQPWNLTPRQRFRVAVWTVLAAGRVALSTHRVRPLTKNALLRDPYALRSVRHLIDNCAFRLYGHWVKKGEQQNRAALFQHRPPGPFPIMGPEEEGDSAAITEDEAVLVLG

[5] = target: T2, Serine/threonine-protein kinase Sgk3 (Homo sapiens) (UniProt Q96BR1); test: Selectivity interaction (KinomeScan (DiscoverX)) EUB0000607a SGK3; conditions: at 10 µM
T2 sequence (whole entry): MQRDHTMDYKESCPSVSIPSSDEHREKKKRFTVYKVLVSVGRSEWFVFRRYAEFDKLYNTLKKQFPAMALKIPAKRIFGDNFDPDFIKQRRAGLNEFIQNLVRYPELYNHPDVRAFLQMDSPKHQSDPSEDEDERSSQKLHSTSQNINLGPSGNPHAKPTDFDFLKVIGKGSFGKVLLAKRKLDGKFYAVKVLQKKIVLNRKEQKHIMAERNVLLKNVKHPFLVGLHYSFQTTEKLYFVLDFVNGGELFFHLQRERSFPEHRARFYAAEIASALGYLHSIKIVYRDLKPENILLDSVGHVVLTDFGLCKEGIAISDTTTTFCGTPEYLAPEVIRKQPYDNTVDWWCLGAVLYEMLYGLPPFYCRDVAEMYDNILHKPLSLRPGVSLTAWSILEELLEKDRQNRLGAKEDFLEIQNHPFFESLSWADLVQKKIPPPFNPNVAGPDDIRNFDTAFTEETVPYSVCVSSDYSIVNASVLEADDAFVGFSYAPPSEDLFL

[6] = target: Serine/threonine-protein kinase SIK3 (Homo sapiens) (UniProt Q9Y2K2); test: Selectivity interaction (KinomeScan (DiscoverX)) EUB0001619a SIK3; conditions: at 1 µM
Serine/threonine-protein kinase SIK3 (Homo sapiens), sequence (Q9Y2K2 whole entry, looked up): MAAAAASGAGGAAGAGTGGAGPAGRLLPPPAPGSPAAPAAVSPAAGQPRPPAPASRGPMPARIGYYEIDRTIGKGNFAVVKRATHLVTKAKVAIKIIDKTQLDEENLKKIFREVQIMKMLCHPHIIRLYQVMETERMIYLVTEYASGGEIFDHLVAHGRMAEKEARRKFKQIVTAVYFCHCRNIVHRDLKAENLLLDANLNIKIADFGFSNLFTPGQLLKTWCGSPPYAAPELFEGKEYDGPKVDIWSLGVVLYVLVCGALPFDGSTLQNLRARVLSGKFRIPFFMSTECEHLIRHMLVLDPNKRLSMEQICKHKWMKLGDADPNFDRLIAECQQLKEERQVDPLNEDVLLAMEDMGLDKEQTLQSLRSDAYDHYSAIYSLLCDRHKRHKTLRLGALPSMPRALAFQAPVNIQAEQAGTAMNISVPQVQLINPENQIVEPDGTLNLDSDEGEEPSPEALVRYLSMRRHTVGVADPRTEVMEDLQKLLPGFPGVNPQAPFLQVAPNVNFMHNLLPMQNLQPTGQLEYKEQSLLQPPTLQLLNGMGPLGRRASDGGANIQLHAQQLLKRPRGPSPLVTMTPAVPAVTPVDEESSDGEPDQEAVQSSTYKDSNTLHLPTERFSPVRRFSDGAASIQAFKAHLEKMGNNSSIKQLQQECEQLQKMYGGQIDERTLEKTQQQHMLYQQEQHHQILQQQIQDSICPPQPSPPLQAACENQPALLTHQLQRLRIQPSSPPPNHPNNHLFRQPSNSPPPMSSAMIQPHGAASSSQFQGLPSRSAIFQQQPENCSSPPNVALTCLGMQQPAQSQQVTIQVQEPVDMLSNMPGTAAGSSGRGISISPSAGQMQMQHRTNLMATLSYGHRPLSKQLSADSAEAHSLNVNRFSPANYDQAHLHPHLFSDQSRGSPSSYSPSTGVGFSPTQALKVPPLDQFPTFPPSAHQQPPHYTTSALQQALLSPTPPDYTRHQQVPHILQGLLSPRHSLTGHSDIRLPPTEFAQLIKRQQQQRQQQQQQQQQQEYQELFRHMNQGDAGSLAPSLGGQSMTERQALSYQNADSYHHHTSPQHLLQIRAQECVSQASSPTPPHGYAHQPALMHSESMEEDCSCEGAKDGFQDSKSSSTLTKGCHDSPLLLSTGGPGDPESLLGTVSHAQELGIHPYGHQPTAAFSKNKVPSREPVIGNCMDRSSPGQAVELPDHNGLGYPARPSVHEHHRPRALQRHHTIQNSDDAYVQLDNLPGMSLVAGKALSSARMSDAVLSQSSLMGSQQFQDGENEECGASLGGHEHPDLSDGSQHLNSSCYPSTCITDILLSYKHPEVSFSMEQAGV

[7] = target: Angiopoietin-1 receptor (Homo sapiens) (UniProt Q02763); test: Selectivity interaction (KinomeScan (DiscoverX)) EUB0000045b TEK
Angiopoietin-1 receptor (Homo sapiens), sequence (Q02763 whole entry): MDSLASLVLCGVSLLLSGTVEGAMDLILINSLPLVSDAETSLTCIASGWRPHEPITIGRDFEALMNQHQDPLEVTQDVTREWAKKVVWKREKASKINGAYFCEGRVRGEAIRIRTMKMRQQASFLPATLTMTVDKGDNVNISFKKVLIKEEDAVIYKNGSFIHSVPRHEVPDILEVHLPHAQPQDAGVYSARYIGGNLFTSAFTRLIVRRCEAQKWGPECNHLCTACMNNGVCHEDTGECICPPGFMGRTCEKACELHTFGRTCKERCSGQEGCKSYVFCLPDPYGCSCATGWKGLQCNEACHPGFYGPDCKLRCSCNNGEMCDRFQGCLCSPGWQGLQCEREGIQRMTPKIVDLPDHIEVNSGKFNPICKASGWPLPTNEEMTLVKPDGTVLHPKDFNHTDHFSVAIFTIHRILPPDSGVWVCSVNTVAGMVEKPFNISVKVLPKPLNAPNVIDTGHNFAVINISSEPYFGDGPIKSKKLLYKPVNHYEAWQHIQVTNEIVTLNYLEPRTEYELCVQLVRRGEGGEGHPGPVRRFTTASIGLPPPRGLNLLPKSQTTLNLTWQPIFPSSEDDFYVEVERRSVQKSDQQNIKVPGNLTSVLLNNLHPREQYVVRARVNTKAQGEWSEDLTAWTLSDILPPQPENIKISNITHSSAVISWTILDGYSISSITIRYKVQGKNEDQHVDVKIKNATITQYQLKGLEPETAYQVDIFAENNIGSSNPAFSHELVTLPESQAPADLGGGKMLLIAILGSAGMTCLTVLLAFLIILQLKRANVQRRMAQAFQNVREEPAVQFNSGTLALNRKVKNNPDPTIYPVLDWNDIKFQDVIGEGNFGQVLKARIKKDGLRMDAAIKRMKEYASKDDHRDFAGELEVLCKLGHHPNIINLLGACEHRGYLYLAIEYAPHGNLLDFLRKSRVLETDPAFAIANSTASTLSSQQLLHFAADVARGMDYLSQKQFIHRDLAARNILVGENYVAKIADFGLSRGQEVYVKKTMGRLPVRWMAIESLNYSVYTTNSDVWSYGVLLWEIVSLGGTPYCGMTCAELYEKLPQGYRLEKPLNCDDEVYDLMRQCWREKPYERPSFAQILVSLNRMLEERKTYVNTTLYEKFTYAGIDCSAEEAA

[8] = target: T3, Mitogen-activated protein kinase kinase kinase 7 (Homo sapiens) (UniProt O43318); test: Selectivity interaction (ActivX KiNativ screen (kinase selectivity in THP-1 cell lysates)) EUB0000639a MAP3K7; assay type: subcellular; conditions: lysate
T3 sequence (whole entry): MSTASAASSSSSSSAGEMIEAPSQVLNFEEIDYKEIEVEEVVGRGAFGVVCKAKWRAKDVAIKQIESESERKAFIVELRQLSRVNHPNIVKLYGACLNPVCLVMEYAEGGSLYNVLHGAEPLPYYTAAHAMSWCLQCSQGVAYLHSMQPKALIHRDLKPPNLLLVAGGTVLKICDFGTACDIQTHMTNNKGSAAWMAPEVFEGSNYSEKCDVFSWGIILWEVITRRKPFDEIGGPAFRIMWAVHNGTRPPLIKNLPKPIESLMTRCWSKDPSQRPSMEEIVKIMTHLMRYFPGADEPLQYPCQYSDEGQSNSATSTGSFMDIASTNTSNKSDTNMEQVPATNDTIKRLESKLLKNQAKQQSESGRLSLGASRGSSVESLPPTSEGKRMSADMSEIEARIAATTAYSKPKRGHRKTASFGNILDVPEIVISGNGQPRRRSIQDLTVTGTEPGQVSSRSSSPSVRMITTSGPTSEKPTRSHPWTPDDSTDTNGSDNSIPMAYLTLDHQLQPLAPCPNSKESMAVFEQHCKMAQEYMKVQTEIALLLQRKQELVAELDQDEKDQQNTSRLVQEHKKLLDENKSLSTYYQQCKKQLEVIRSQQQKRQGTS

[9] = target: Protein-tyrosine kinase 6 (Homo sapiens, UniProt Q13882); test: Selectivity interaction (Kinase panel (Invitrogen)) EUB0000639a PTK6; conditions: at 200 nM
[10] = target: SRSF protein kinase 3 (Homo sapiens) (UniProt Q9UPE1); test: Selectivity interaction (KinomeScan (DiscoverX)) EUB0000229b SRPK3; conditions: at 10 µM
[11] = target: Homeodomain-interacting protein kinase 2 (Homo sapiens, UniProt Q9H2X6); test: Selectivity interaction (KinomeScan (DiscoverX)) EUB0001049a HIPK2; conditions: at 1 µM

Dual specificity protein kinase CLK2, sequence (P49760 whole entry, looked up): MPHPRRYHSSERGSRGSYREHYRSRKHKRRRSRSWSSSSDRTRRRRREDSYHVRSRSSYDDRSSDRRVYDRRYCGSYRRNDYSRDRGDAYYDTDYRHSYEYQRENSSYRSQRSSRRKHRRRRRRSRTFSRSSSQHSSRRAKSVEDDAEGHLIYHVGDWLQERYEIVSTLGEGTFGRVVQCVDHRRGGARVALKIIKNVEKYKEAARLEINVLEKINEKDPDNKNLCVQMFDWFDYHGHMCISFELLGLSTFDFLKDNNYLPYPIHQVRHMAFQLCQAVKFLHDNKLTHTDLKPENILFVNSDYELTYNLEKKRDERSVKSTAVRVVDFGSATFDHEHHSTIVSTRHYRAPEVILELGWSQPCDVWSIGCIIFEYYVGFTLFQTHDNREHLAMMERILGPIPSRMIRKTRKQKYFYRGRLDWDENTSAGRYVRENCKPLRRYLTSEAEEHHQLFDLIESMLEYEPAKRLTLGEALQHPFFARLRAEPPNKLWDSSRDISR
Serine/threonine-protein kinase MARK2 (Homo sapiens), sequence (Q7KZI7 whole entry): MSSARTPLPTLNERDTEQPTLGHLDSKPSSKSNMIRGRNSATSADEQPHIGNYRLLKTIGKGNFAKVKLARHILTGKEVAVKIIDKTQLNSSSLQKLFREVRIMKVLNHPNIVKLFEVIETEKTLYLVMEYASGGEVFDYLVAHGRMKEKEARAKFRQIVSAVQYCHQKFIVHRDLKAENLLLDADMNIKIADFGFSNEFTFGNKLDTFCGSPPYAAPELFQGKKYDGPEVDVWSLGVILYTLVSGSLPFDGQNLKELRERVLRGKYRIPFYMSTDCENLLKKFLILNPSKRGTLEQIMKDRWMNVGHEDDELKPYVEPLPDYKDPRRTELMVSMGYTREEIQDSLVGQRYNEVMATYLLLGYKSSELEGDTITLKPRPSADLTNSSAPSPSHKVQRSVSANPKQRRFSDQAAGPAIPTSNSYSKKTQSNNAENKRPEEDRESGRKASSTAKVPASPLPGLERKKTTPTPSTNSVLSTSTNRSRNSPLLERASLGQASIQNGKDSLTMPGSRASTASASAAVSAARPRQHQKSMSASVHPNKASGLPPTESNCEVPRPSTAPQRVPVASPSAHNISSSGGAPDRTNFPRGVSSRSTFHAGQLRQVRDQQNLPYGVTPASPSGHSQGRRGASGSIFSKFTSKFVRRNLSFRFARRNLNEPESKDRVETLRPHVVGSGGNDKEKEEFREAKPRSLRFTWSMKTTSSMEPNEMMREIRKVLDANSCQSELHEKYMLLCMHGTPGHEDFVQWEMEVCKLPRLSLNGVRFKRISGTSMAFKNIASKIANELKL

Structure (SMILES): CN(C)C/C=C/C(=O)Nc1ccc(C(=O)N2CCCC(Nc3ncc(Cl)c(-c4c[nH]c5ccccc45)n3)C2)cc1 (stereo unspecified)
% of control [1]: 78%

Structure (SMILES): CN(C)CCOc1ccc(-c2nc(-c3ccncc3)c(-c3ccc4c(c3)CC/C4=N\O)[nH]2)cc1
% of control [2]: 52%

Structure (SMILES): O[C@H]1CC[C@H](Nc2ncc3nc(Nc4c(F)cc(F)cc4F)n([C@H]4CCOC4)c3n2)CC1
% of control [3]: 93%

Structure (SMILES): CNC(=O)Nc1ccc(-c2nc(N3CC4CCC(C3)O4)c3cnn(C4CCC5(CC4)OCCO5)c3n2)cc1
% of inhibition [4]: 12%
% of control [5]: 100%

Structure (SMILES): N#Cc1cccc(-c2c[nH]c3ncnc(N4CCOCC4)c23)c1
% of control [6]: 100%

Structure (SMILES): C=CC(=O)Nc1cc(-n2c(=O)ccc3cnc4ccc(-c5ccc(NS(C)(=O)=O)cc5)cc4c32)ccc1C
% of control ([7]; at 1 µM): 89%
% of control ([7]; at 10 µM): 99%

% of inhibition ([8]; at 0.01 µM): 6.8%
% of inhibition ([8]; at 0.04 µM): 3.8%
% of inhibition ([8]; at 0.2 µM): -2.9%
% of inhibition ([8]; at 1 µM): -3.1%
% of inhibition ([8]; at 5 µM): -8.6%
% of inhibition [9]: -1.08%
Structure (SMILES): CC[C@@H]1[C@H](F)C(=O)N[C@@H]1COc1nccc2cc(C(N)=O)c(OC)cc12 [ZIMLOVISERTIB]

Structure (SMILES): COc1cc(N(C)c2ccnc3ccc(C(F)(F)F)cc23)cc(OC)c1OC
% binding [10]: 86%

Structure (SMILES): COc1cc(Nc2nc(C)cc(-c3cnn4nc(OC)ccc34)n2)cc(C(F)(F)F)c1
% of control [11]: 94%
